# Test results reported in patent publication US20240158446A1, “CYCLIC COMPOUND HAVING SELECTIVE INHIBITORY ACTION ON KRAS OVER HRAS AND NRAS” (CHUGAI SEIYAKU KABUSHIKI KAISHA, priority 2021, published 2024).
# Where a SMILES comes first, the peptide text is derived from it. Bridges are numbered along the chain shown (N, C = ends). [ ]: non-standard residue; d: D form. The star is where a group is joined. hPhe(3-Cl-4-CF3) = N[C@@H](CCc1ccc(C(F)(F)F)c(Cl)c1)C(=O)O; NPrPhe(4-CF3) = CCCN[C@@H](Cc1ccc(C(F)(F)F)cc1)C(=O)O; NMeGly(cPent) = CN[C@H](C(=O)O)C1CCCC1; Pro(4,4-F2) = O=C(O)[C@@H]1CC(F)(F)CN1; Pro(4,4-Me2) = CC1(C)CN[C@H](C(=O)O)C1; NMeD = CN[C@@H](CC(=O)O)C(=O)O; NMeL = CN[C@@H](CC(C)C)C(=O)O; Morpholide = C1CN(*)CCO1; Ac5c = NC1(C(=O)O)CCCC1; Aze = O=C(O)[C@@H]1CCN1; Ac4c = NC1(C(=O)O)CCC1; Sar = CNCC(=O)O
# Assays:
# [1] = test system: human lung cancer strain NCI-H441;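 further: cell proliferation inhibition after four days measured by CellTiter-Glo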
# [2] = target: GDP-bound HRAS wild-type protein (Homo sapiens, UniProt P01112); assay: Binding to HRAS by surface plasmon resonance (SPR), Single Cycle Kinetics; settings: for HRAS/KRAS (ratio of KD value with respect to HRAS to KD value with respect to KRAS) / HRAS/KRAS (ratio of KD value for HRAS to KD value for KRAS): SPR, GDP-bound HRAS wild-type protein vs GDP-bound KRAS wild-type protein
# GDP-bound HRAS wild-type protein, sequence (P01112 whole entry): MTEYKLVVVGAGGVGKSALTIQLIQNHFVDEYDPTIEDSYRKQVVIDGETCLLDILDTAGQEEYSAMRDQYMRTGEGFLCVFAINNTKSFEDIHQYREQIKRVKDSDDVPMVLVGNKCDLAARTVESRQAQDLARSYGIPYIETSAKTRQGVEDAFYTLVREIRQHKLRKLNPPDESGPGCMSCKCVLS
# [3] = target: GDP-bound NRAS wild-type protein (Homo sapiens, UniProt P01111); assay: Binding to NRAS by surface plasmon resonance (SPR), Single Cycle Kinetics; settings: for NRAS/KRAS (ratio of KD value with respect to NRAS to KD value with respect to KRAS) / NRAS/KRAS (ratio of KD value for NRAS to KD value for KRAS): SPR, GDP-bound NRAS wild-type protein vs GDP-bound KRAS wild-type protein
# GDP-bound NRAS wild-type protein, sequence (P01111 whole entry): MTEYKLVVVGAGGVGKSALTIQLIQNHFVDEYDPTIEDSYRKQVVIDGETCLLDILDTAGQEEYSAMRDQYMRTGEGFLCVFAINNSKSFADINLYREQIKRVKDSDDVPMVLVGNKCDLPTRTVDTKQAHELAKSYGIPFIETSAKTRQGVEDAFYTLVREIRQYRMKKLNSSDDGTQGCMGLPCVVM
Compound,IC50 [1] [nM],HRAS/KRAS (ratio of KD value with respect to HRAS to KD value with respect to KRAS) [2],NRAS/KRAS (ratio of KD value with respect to NRAS to KD value with respect to KRAS) [3],"HRAS/KRAS (ratio of KD value with respect to GDP-bound HRAS wild-type protein to KD value with respect to KRAS) ([2]; SPR KD ratio HRAS/KRAS, class symbols)","NRAS/KRAS (ratio of KD value with respect to GDP-bound NRAS wild-type protein to KD value with respect to KRAS) ([3]; SPR KD ratio NRAS/KRAS, class symbols)",HRAS/KRAS (ratio of KD value for HRAS to KD value for KRAS) [2],NRAS/KRAS (ratio of KD value for NRAS to KD value for KRAS) [3]
"CCCN1C(=O)CN(C)C(=O)[C@@H]2CCN2C(=O)[C@H]([C@@H](C)CC)NC(=O)[C@H](CC(C)C)N(C)C(=O)C[C@@H](C(=O)N2CCOCC2)N(C)C(=O)[C@H](C2CCCC2)N(C)C(=O)C2(CCCC2)NC(=O)[C@@H]2CC(C)(C)CN2C(=O)[C@H](CCc2ccc(C(F)(F)F)c(Cl)c2)NC(=O)CN(C)C(=O)[C@@H]1Cc1ccc(C(F)(F)F)cc1 [PP0452] ([NMeL]I[Aze][Sar][NPrPhe(4-CF3)][Sar][hPhe(3-Cl-4-CF3)][Pro(4,4-Me2)][Ac5c][NMeGly(cPent)][NMeD]-Morpholide; lactam N-11)",34.1,B (a compound having 3 or more and less than 10 is denoted as B),B (a compound having 3 or more and less than 10 is denoted as B),–,–,–,–
CCC(CC)[C@H]1C(=O)N(C)[C@H](C(=O)N(C)C)CC(=O)N(C)[C@@H](COC)C(=O)N[C@@H]([C@@H](C)CC)C(=O)N(C)CC(=O)N(C)[C@H]2C/C=C\CCN(C2=O)[C@@H](Cc2ccc(C)cc2)C(=O)N(C)CC(=O)N[C@@H](CCc2ccc(Cl)c(Cl)c2)C(=O)N2CC3(CC3)C[C@H]2C(=O)N(C)C2(CC(C)(C)C2)C(=O)N1C [PP2820],62.4,–,–,A (a compound having 10 or more and less than 20 is denoted as A),AA (a compound having 20 or more is denoted as AA),–,–
CCO[C@@H]1C[C@H]2C(=O)NC3(CCC3)C(=O)N(C)[C@@H](C3CCCC3)C(=O)N(C)[C@H](C(=O)N3CCOCC3)CC(=O)N(C)[C@@H](Cc3ccccc3)C(=O)N[C@@H]([C@@H](C)CC)C(=O)N(C)CC(=O)N(C)[C@H]3CCCCCN(C3=O)[C@@H](Cc3ccc(F)cc3)C(=O)N(C)CC(=O)N[C@@H](CCc3cc(F)c(C(F)(F)F)c(F)c3)C(=O)N2C1 [PP1181],26.3,–,–,–,–,B (a compound having 3 or more and less than 10 is denoted as B),B (a compound having 3 or more and less than 10 is denoted as B)
"CCCN1C(=O)CN(C)C(=O)[C@@H]2CCN2C(=O)[C@H]([C@@H](C)CC)NC(=O)[C@H](CC(C)C)N(C)C(=O)C[C@@H](C(=O)N(C)C)N(C)C(=O)[C@H](C2CCCC2)N(C)C(=O)C2(CCC2)NC(=O)[C@@H]2CC(F)(F)CN2C(=O)[C@H](CCc2ccc(C(F)(F)F)c(Cl)c2)NC(=O)CN(C)C(=O)[C@@H]1Cc1ccc(C(F)(F)F)cc1 [PP0432] ([NMeL]I[Aze][Sar][NPrPhe(4-CF3)][Sar][hPhe(3-Cl-4-CF3)][Pro(4,4-F2)][Ac4c][NMeGly(cPent)][NMeD]-NMe2; lactam N-11)",10.7,B (a compound having 3 or more and less than 10 is denoted as B),B (a compound having 3 or more and less than 10 is denoted as B),–,–,–,–

# Further lines, with some results ahead:
IC50 [1] [nM],Compound,HRAS/KRAS (ratio of KD value with respect to HRAS to KD value with respect to KRAS) [2],NRAS/KRAS (ratio of KD value with respect to NRAS to KD value with respect to KRAS) [3],"HRAS/KRAS (ratio of KD value with respect to GDP-bound HRAS wild-type protein to KD value with respect to KRAS) ([2]; SPR KD ratio HRAS/KRAS, class symbols)","NRAS/KRAS (ratio of KD value with respect to GDP-bound NRAS wild-type protein to KD value with respect to KRAS) ([3]; SPR KD ratio NRAS/KRAS, class symbols)",HRAS/KRAS (ratio of KD value for HRAS to KD value for KRAS) [2],NRAS/KRAS (ratio of KD value for NRAS to KD value for KRAS) [3]
1040,CCO[C@@H]1C[C@H]2C(=O)NC(C)(C)C(=O)N(C)[C@@H](C3CCCC3)C(=O)N(CC)[C@H](C(=O)N3CCOCC3)CC(=O)N(C)[C@@H](CC(C)C)C(=O)N[C@@H]([C@@H](C)CC)C(=O)N(C)CC(=O)N(C)[C@H]3CCCCCN(C3=O)[C@@H](Cc3ccc(C(F)(F)F)cc3)C(=O)N(C)CC(=O)N[C@@H](CCc3cc(F)c(C(F)(F)F)c(F)c3)C(=O)N2C1 [PP0958],–,–,–,–,B (a compound having 3 or more and less than 10 is denoted as B),B (a compound having 3 or more and less than 10 is denoted as B)
24.8,CCO[C@@H]1C[C@H]2C(=O)NC3(CCC3)C(=O)N(C)[C@@H](C3CCCC3)C(=O)N(C)[C@H](C(=O)N(C)C)CC(=O)N(C)[C@@H](CC)C(=O)N[C@@H]([C@@H](C)CC)C(=O)N(C)CC(=O)N(C)[C@H]3CCCCCN(C3=O)[C@@H](Cc3ccc(F)c(F)c3)C(=O)N(C)CC(=O)N[C@@H](CCc3cc(F)c(C(F)(F)F)c(F)c3)C(=O)N2C1 [PP0907],–,–,–,–,B (a compound having 3 or more and less than 10 is denoted as B),B (a compound having 3 or more and less than 10 is denoted as B)
22.1,CCCOC[C@H]1C(=O)N[C@@H]([C@@H](C)CC)C(=O)N(C)CC(=O)N(C)[C@H]2C/C=C\CCN(C2=O)[C@@H](Cc2ccc(C)cc2)C(=O)N(C)CC(=O)N[C@@H](CCc2ccc(C(F)(F)F)c(Cl)c2)C(=O)N2C[C@H](CC)C[C@H]2C(=O)NC2(CC(C)(C)C2)C(=O)N(C)[C@@H](C2CCCC2)C(=O)N(C)[C@H](C(=O)N(C)C)CC(=O)N1C [PP2235],–,–,–,–,A (a compound having 10 or more and less than 20 is denoted as A),A (a compound having 10 or more and less than 20 is denoted as A)
